Measurements reported in patent US7906656B2, “Iodopyrazolyl carboxanilides” (Bayer CropScience AG, priority 2003, dated 2011).

How the values were obtained:
Podosphaera leucotricha = experiment: Podosphaera test (apple)/protective; type: in vivo; conditions: 240 h, protective, application rate 100 g/ha, evaluation 10 days after inoculation, read-out: Efficacy in %
Description: (§1) To produce a suitable preparation of active compound, 1 part by weight of active compound is mixed with the stated amounts of solvents and emulsifier, and the concentrate is diluted with water to the desired concentration. To test for protective activity, young plants are sprayed with the preparation of active compound at the stated application rate. After the spray coating has dried on, the plants are inoculated with an aqueous spore suspension of the apple mildew pathogen Podosphaera leucotricha. The plants are then placed in a greenhouse at about 23° C. and a relative atmospheric humidity of about 70%. Evaluation is carried out 10 days after the inoculation. 0% means an efficacy which corresponds to that of the control, whereas an efficacy of 100% means that no infection is observed.

[1] = log P determination by HPLC on reversed-phase column (EEC directive 79/831 Annex V.A8); type: physicochemical; conditions: pH 2.3, HPLC reversed-phase C18, 43° C.; for chromatographic logP: reversed-phase C18 HPLC column
Description: The given log P values were determined in accordance with EEC directive 79/831 Annex V.A8 by HPLC (High Performance Liquid Chromatography) on a reversed-phase column (C18). Temperature: 43° C. Mobile phases for the determination in the acidic range (pH 2.3): 0.1% aqueous phosphoric acid, acetonitrile; linear gradient from 10% acetonitrile to 90% acetonitrile. Calibration was carried out using unbranched alkan-2-ones (having 3 to 16 carbon atoms) with known log P values (determination of the log P values by the retention times using linear interpolation between two successive alkanones).

Venturia inaequalis = experiment: Venturia test (apple)/protective; type: in vivo; conditions: 240 h, protective, application rate 100 g/ha, evaluation 10 days after inoculation, read-out: Efficacy in %
Description: as §1, with “conidia” for “spore”, “apple” for “apple mildew”, “Venturia inaequalis and then remain in an incubation cabin at about 20° C. and 100% relative atmospheric humidity for 1 day.” for “Podosphaera leucotricha.”, “21°” for “23°”, “90%.” for “70%.”

Botrytis cinerea = experiment: Botrytis test (bean)/protective; type: in vivo; conditions: 48 h, protective, application rate 500 g/ha, evaluation 2 days after inoculation, read-out: Efficacy in %
Description: To produce a suitable preparation of active compound, 1 part by weight of active compound is mixed with the stated amounts of solvents and emulsifier, and the concentrate is diluted with water to the desired concentration. To test for protective activity, young plants are sprayed with the preparation of active compound at the stated application rate. After the spray coating has dried on, 2 small pieces of agar colonized with Botrytis cinerea are placed onto each leaf. The inoculated plants are placed in a darkened chamber at about 20° C. and 100% relative atmospheric humidity. 2 days after the inoculation, the size of the infected areas on the leaves is evaluated. 0% means an efficacy which corresponds to that of the control, whereas an efficacy of 100% means that no infection is observed.

## CCCO/N=C/c1ccc(-c2ccccc2NC(=O)c2cn(C)nc2I)cc1F [drawing 60]
Podosphaera leucotricha
  pest or weed control at 100 g/ha: 100%

## CCOC(=O)/C(C#N)=C\N(C)/N=C/c1ccccc1 [ethyl 3-(N′-benzylidene-N-methylhydrazino)-2-cyanoacrylate]
[1]
  chromatographic logP: 2.31

## C=C(c1ccccc1NC(=O)c1cn(C)nc1I)C(C)C [Compound 25]
[1]
  logP: 3.28

## Cn1cc(C(=O)Nc2ccccc2-c2ccc(C(F)(F)F)c(F)c2)c(I)n1 [Compound 11]
[1]
  logP: 3.23

## CC(C)CCc1ccccc1NC(=O)c1cn(C)nc1I [drawing 82]
Venturia inaequalis
  pest or weed control at 100 g/ha: 98%

## CC(C)CC(C)c1ccccc1NC(=O)c1cn(C)nc1I (stereo not drawn) [drawing 86]
Botrytis cinerea
  pest or weed control at 500 g/ha: 100%

## Cn1cc(C(=O)Nc2ccccc2-c2ccc(Cl)c(Cl)c2)c(I)n1 [Compound 2]
[1]
  logP: 3.38

## CCOC(=O)c1cn(C)nc1I [ethyl 3-iodo-1-methyl-1H-pyrazole-4-carboxylate]
[1]
  chromatographic logP: 1.74

## CC(C)=C(C)c1ccccc1NC(=O)c1cn(C)nc1I [Compound 27]
[1]
  logP: 3.40

## Cn1cc(C(=O)Nc2ccc(F)cc2-c2ccc(Cl)c(Cl)c2)c(I)n1 [drawing 72]
Venturia inaequalis
  pest or weed control at 100 g/ha: 100%

## CCCON=Cc1ccc(-c2ccccc2NC(=O)c2cn(C)nc2I)cc1F [Compound 5]
[1]
  logP: 4.00

## CC(C)CCc1ccccc1NC(=O)c1cn(C)nc1I [Compound 24]
[1]
  logP: 3.15

## Cn1cc(C(=O)Nc2ccccc2-c2ccc(C(F)(F)F)cc2)c(I)n1 [drawing 78]
Venturia inaequalis
  pest or weed control at 100 g/ha: 94%

## Cn1cc(C(=O)Nc2ccccc2-c2ccc(Br)c(Cl)c2)c(I)n1 [Compound 31]
[1]
  logP: 3.45

## Cc1ccc(-c2ccccc2NC(=O)c2cn(C)nc2I)cc1F [Compound 7]
[1]
  logP: 3.18

## Cn1cc(C(=O)Nc2ccccc2-c2ccc(C(F)(F)F)cc2)c(I)n1 [Compound 10]
[1]
  logP: 3.24

## Cn1cc(C(=O)Nc2ccccc2-c2ccc(C(F)(F)F)c(F)c2)c(I)n1 [drawing 63]
Podosphaera leucotricha
  pest or weed control at 100 g/ha: 99%

## CCCO/N=C/c1ccc(-c2ccccc2NC(=O)c2cn(C)nc2I)cc1F [drawing 92]
Botrytis cinerea
  pest or weed control at 500 g/ha: 100%

## Cn1cc(C(=O)Nc2ccccc2-c2ccc(Cl)cc2)c(I)n1 [drawing 80]
Venturia inaequalis
  pest or weed control at 100 g/ha: 100%

## Cn1cc(C(=O)Nc2ccc(F)cc2-c2ccc(Cl)c(Cl)c2)c(I)n1 [Compound 6, N-(3′,4′-dichloro-5-fluoro-1,1′-biphenyl-2-yl)-3-iodo-1-methyl-1H-pyrazole-4-carboxamide]
[1]
  chromatographic logP: 3.42

## Cn1cc(C(=O)Nc2ccccc2-c2ccc(C(F)(F)F)cc2)c(I)n1 [drawing 62]
Podosphaera leucotricha
  pest or weed control at 100 g/ha: 88%

## Cn1cc(C(=O)Nc2ccccc2-c2cccc(Cl)c2F)c(I)n1 [Compound 17]
[1]
  logP: 2.99

## Cn1cc(C(=O)Nc2ccccc2-c2ccc(F)c(Cl)c2)c(I)n1 [drawing 73]
Venturia inaequalis
  pest or weed control at 100 g/ha: 100%

## Cn1cc(C(=O)Nc2ccccc2-c2ccc(Cl)c(Cl)c2)c(I)n1 [drawing 55]
Podosphaera leucotricha
  pest or weed control at 100 g/ha: 99%

## CC1CC(C)(C)c2cccc(NC(=O)c3cn(C)nc3I)c21 (stereo not drawn) [drawing 83]
Venturia inaequalis
  pest or weed control at 100 g/ha: 100%

## CC(C)CC(C)c1cc(F)ccc1NC(=O)c1cn(C)nc1I (stereo not drawn) [drawing 68]
Podosphaera leucotricha
  pest or weed control at 100 g/ha: 100%

## Cn1cc(C(=O)Nc2ccccc2-c2ccc(Cl)c(Cl)c2)c(I)n1 [drawing 71]
Venturia inaequalis
  pest or weed control at 100 g/ha: 99%

## CC(C)CC(C)c1cc(F)ccc1NC(=O)c1cn(C)nc1I (stereo not drawn) [drawing 84]
Venturia inaequalis
  pest or weed control at 100 g/ha: 100%

## CC(CC1CC1)c1ccccc1NC(=O)c1cn(C)nc1I (stereo not drawn) [Compound 15]
[1]
  logP: 3.08

## C=C(C)CC(C)(O)c1ccccc1NC(=O)c1cn(C)nc1I (stereo not drawn) [Compound 13]
[1]
  logP: 2.54

## Cn1cc(C(=O)Nc2ccccc2-c2ccc(I)cc2)c(I)n1 [drawing 81]
Venturia inaequalis
  pest or weed control at 100 g/ha: 99%

## CCOC(=O)c1cn(C)nc1N [ethyl 3-amino-1-methyl-1H-pyrazole-4-carboxylate]
[1]
  chromatographic logP: 0.72

## CC(CC(C)(C)C)c1ccccc1NC(=O)c1cn(C)nc1I (stereo not drawn) [drawing 53]
Podosphaera leucotricha
  pest or weed control at 100 g/ha: 100%

## Cn1cc(C(=O)Nc2ccccc2-c2ccc(Cl)c(F)c2)c(I)n1 [drawing 59]
Podosphaera leucotricha
  pest or weed control at 100 g/ha: 100%

## Cn1cc(C(=O)Nc2ccccc2-c2ccc(I)cc2)c(I)n1 [Compound 16]
[1]
  logP: 3.36

## C=C(CC(C)(C)C)c1ccccc1NC(=O)c1cn(C)nc1I [Compound 26]
[1]
  logP: 3.82

## CCCO/N=C/c1ccc(-c2ccccc2NC(=O)c2cn(C)nc2I)cc1F [drawing 76]
Venturia inaequalis
  pest or weed control at 100 g/ha: 100%

## Cn1cc(C(=O)Nc2ccccc2-c2ccc(Cl)c(F)c2)c(I)n1 [drawing 75]
Venturia inaequalis
  pest or weed control at 100 g/ha: 100%

## Cn1cc(C(=O)Nc2ccccc2-c2ccc(F)c(Cl)c2)c(I)n1 [drawing 57]
Podosphaera leucotricha
  pest or weed control at 100 g/ha: 100%

## CC1CC(C)(C)c2cccc(NC(=O)c3cn(C)nc3I)c21 (stereo not drawn) [drawing 67]
Podosphaera leucotricha
  pest or weed control at 100 g/ha: 100%

## Cn1cc(C(=O)Nc2ccccc2-c2ccc(Cl)cc2)c(I)n1 [drawing 64]
Podosphaera leucotricha
  pest or weed control at 100 g/ha: 100%

## CC(C)CC(C)c1ccccc1NC(=O)c1cn(C)nc1I (stereo not drawn) [drawing 70]
Venturia inaequalis
  pest or weed control at 100 g/ha: 100%

## Cn1cc(C(=O)Nc2ccccc2-c2ccc(F)c(Cl)c2)c(I)n1 [Compound 8]
[1]
  logP: 3.09

## Cn1cc(C(=O)Nc2ccccc2-c2ccc(Br)cc2)c(I)n1 [Compound 9]
[1]
  logP: 3.20

## CC(C)CC(C)c1ccccc1NC(=O)c1cn(C)nc1I (stereo not drawn) [drawing 54]
Podosphaera leucotricha
  pest or weed control at 100 g/ha: 100%

## CC(CC(C)(C)C)c1ccccc1NC(=O)c1cn(C)nc1I (stereo not drawn) [drawing 69]
Venturia inaequalis
  pest or weed control at 100 g/ha: 100%

## Cn1cc(C(=O)Nc2ccccc2-c2ccc(C(F)(F)F)c(F)c2)c(I)n1 [drawing 79]
Venturia inaequalis
  pest or weed control at 100 g/ha: 98%

## CC(=CC(C)C)c1ccccc1NC(=O)c1cn(C)nc1I [Compound 12]
[1]
  logP: 3.62

## Cn1cc(C(=O)Nc2ccccc2C#CC(C)(C)C)c(I)n1 [Compound 22]
[1]
  logP: 3.79

## Cn1cc(C(=O)O)c(I)n1 [3-iodo-1-methyl-1H-pyrazole-4-carboxylic acid]
[1]
  chromatographic logP: 0.57

## Cn1cc(C(=O)Nc2ccccc2-c2ccc(Cl)c(F)c2)c(I)n1 [Compound 3]
[1]
  logP: 3.09

## Cn1cc(C(=O)Nc2ccccc2-c2ccc(Br)cc2)c(I)n1 [drawing 74]
Venturia inaequalis
  pest or weed control at 100 g/ha: 100%

## Cc1ccc(-c2ccccc2NC(=O)c2cn(C)nc2I)cc1F [drawing 77]
Venturia inaequalis
  pest or weed control at 100 g/ha: 97%

## Cn1cc(C(=O)Nc2ccccc2-c2ccc(C(F)(F)F)cc2Cl)c(I)n1 [Compound 30]
[1]
  logP: 3.55

## CON=C(c1ccc(-c2ccccc2NC(=O)c2cn(C)nc2I)cc1)C(F)(F)F [Compound 23]
[1]
  logP: 3.70

## CC(=O)N(C(=O)c1cn(C)nc1I)c1ccccc1C(C)CC(C)C (stereo not drawn) [Compound 21]
[1]
  logP: 3.68

## CC1CC(C)(C)c2cccc(NC(=O)c3cn(C)nc3I)c21 (stereo not drawn) [Compound 19]
[1]
  logP: 3.27

## Cn1cc(C(=O)Nc2ccccc2CCC(C)(C)C)c(I)n1 [Compound 18]
[1]
  logP: 3.34

## CC(C)CCc1ccccc1NC(=O)c1cn(C)nc1I [drawing 66]
Podosphaera leucotricha
  pest or weed control at 100 g/ha: 98%

## Cn1cc(C(=O)Nc2ccccc2-c2ccc(Br)cc2)c(I)n1 [drawing 58]
Podosphaera leucotricha
  pest or weed control at 100 g/ha: 100%

## Cc1ccc(-c2ccccc2NC(=O)c2cn(C)nc2I)cc1F [drawing 61]
Podosphaera leucotricha
  pest or weed control at 100 g/ha: 100%

## CC(C)CC(C)c1cc(F)ccc1NC(=O)c1cn(C)nc1I (stereo not drawn) [Compound 20]
[1]
  logP: 3.39

## CC(CC(C)(C)C)c1ccccc1NC(=O)c1cn(C)nc1I (stereo not drawn) [Compound 1]
[1]
  logP: 3.64

## Cn1cc(C(=O)Nc2ccccc2-c2ccc(Br)cc2Cl)c(I)n1 [Compound 32]
[1]
  logP: 3.56

## Cn1cc(C(=O)Nc2ccc(F)cc2-c2ccc(Cl)c(Cl)c2)c(I)n1 [drawing 56]
Podosphaera leucotricha
  pest or weed control at 100 g/ha: 100%

## Cn1cc(C(=O)Nc2ccccc2-c2cccc(Cl)c2Cl)c(I)n1 [Compound 28]
[1]
  logP: 3.34

## CC(C)CC(C)c1ccccc1NC(=O)c1cn(C)nc1I (stereo not drawn) [Compound 4]
[1]
  logP: 3.36

## Cn1cc(C(=O)Nc2ccccc2-c2ccc(Cl)cc2)c(I)n1 [Compound 14]
[1]
  logP: 3.08

## Cn1cc(C(=O)Nc2ccccc2-c2ccc(I)cc2)c(I)n1 [drawing 65]
Podosphaera leucotricha
  pest or weed control at 100 g/ha: 100%
